According to article PMC10687260, “1,3-Diphenylureido hydroxamate as a promising scaffold for generation of potent antimalarial histone deacetylase inhibitors” (Scientific Reports, 2023):
Like-named read-outs stand apart in the source and are kept apart here.

Assays:
P. falciparum 3D7 [1] = assay: Antiplasmodial SYBR Green I proliferation assay, P. falciparum 3D7; format: cell-based, Plasmodium falciparum; settings: read-out: IC50 Pf3D7
Excerpt: (§1) Antiplasmodial activity against P. falciparum 3D7 (A, C and E) and P. falciparum Dd2 (B, D, F). […] Curves were plotted using non-linear regression based on means from three independent experiments measured in triplicate. Error bars indicate standard deviation, whose values are provided in the respective table.
(§2) Plasmodium falciparum culture and antiplasmodial activity. […] Development, parasitaemia, and morphology of parasites were monitored by light microscopy of thin blood smears stained according to the Romanowsky method (Panótico Rápido staining kit; Laborclin, Pinhais, Paraná, Brazil). […] Fresh 0^+ blood was generously provided by “Hospital Novo Atibaia” (Atibaia, SP, Brazil), and approved by the ethics committee at ICB-USP. The antiplasmodial effect of all compounds was validated against P. falciparum 3D7 strain conducting SYBR Green I (Invitrogen) drug assays as previously reported[30],[46] as a modification of the original procedure. […] Parasite proliferation was measured by the DNA load via fluorescence, using 100 μL of a lysis buffer with SYBR Green I (0.02% v/v) and incubated for 1 h at room temperature in the dark. […] Focal and gain adjustment was performed using the non-treated controls (highest expected fluorescence signal). Data was acquired via the CLARIOstar (V5.20) and MARS software, manually scaled to 0–100%, and plotted using GraphPad Prism (v9.5.2 for Windows, GraphPad Software, La Jolla California USA, www.graphpad.com). Non-treated parasites, the highest solvent concentration on parasites, CQ on parasites, and the highest drug concentration in the medium were used as controls for maximal growth, solvent control, positive biological control, and native drug fluorescence, respectively.

HepG2 cells = assay: Cytotoxicity in human HepG2 cells (WST-1); format: cell-based; settings: read-out: IC50 HepG2
Experimental: Cytotoxicity in human HepG2 cells.[47] […] Cytotoxic effects of compounds were assessed using the cell proliferation reagent WST-1 (Roche; CELLPRO-RO) in a 96-well plate-based screening assay. HepG2 cells were seeded at 10^4 cells/well (100 μL) in 96-well flat-bottom plates (Sarstedt) the night before the experiment to allow attachment of cells. The next day, two-fold serial dilutions of compounds were prepared in fresh medium in an extra plate, and the medium of cells was replaced by the medium containing the compound dilutions. Non-treated cells (max. proliferation), cells treated with the maximal solvent concentration (DMSO; solvent control), and medium with the maximal compound concentration (native absorbance) used as controls. […] Subsequently, 10 μL WST-1 was added to each well and plates were incubated for additional 4 h under standard conditions. WST-1 is a tetrazolium salt and is metabolised by the mitochondrial succinate-tetrazolium-reductase system of living cells and forms formazan, whose absorbance was measured at 450 nm. Absorbance at 630 nm was assessed to check for protein and precipitation background. Both measurements were acquired via the CLARIOstar (V5.20) and MARS software, manually scaled to 0–100%, and plotted with GraphPad Prism (version 9.5.2 for Windows, GraphPad Software, La Jolla California USA).

P. falciparum Dd2 = assay: Antiplasmodial SYBR Green I proliferation assay, P. falciparum Dd2; format: cell-based; settings: Plasmodium falciparum
Excerpt: as §1, §2

acetylated histone H3 = assay: Western blot of acetylated histone H3 in infected erythrocytes; format: cell-based, Plasmodium falciparum; settings: 10 × IC50 for 4 h, trophozoites, vs DMSO
Experimental: (§3) Figure 5 Hydroxamic acid derivatives as potent in vitro PfHDAC1 inhibitors. […]. Enzyme activity was calculated by normalizing the data against the DMSO treated samples and discounting the background. Data are presented as shown above, with mean ± S.D. (n = 2). […]. Comparison of group/concentration against the DMSO control is represented as † for P < 0.0001. […]. Numbers on side of the bands represent the predicted mass (kDa) for each protein. (C,D) Band quantification of histone H3 (C) and H4 (D), respectively, normalizing their acetylated detection against their unmodified version. Differences to this value were analyzed by one way ANOVA using the Dunnett’s post correction, comparing each group against the DMSO control, as rank tests where P values are explicitly depicted.
(§4) Western Blot analysis. […]. Proteins were transferred to PVDF membranes, 5% non-fat dry milk in TBS with Tween 20 (0.1%) was used as blocking agent for 1 h at room temperature. After, incubated with the antibodies overnight at 4 °C (Acetyl Histone H3 Lys9 C5B11 Cell Signaling, Acetyl Histone H4 Lys16 E2B8W Cell Signaling, Histone H3 96C10 Cell Signaling and Histone H4 D2X4V Cell Signaling). For the analysis of protein acetylation levels, the membranes were stripped and re-probed with the corresponding anti-total protein. Mouse monoclonal anti-α-Tubulin (B512 Sigma-Aldrich) was used as loading control. Detection was performed by enhanced chemiluminescence using horseradish peroxidase-conjugated secondary antibodies (Vector Laboratories, Burlingame, CA, USA) and SuperSignal TM West Pico PLUS Chemiluminescent substrate kit (Thermo Scientific). Images were acquired using ChemiDoc TM Imaging System (BioRad Laboratories, CA, USA). Quantitative densitometry was carried out using ImageLab software (Bio-Rad Laboratories, CA, USA). The volume density of the chemiluminescent bands was calculated as an integrated optical density × mm^2 after background correction from each independent experiment (N = 3).

acetylated histone H4 = assay: Western blot of acetylated histone H4 in infected erythrocytes; format: cell-based, Plasmodium falciparum; settings: 10 × IC50 for 4 h, trophozoites, vs DMSO
Experimental: as §3, §4

PfHDAC1 = target: T1, PfHDAC1 (Plasmodium falciparum, UniProt Q7K6A1); assay: In vitro PfHDAC1 enzymatic assay; format: biochemical
T1 construct: purchased BPS Bioscience (San Diego, CA)
T1 sequence (Q7K6A1 1-449): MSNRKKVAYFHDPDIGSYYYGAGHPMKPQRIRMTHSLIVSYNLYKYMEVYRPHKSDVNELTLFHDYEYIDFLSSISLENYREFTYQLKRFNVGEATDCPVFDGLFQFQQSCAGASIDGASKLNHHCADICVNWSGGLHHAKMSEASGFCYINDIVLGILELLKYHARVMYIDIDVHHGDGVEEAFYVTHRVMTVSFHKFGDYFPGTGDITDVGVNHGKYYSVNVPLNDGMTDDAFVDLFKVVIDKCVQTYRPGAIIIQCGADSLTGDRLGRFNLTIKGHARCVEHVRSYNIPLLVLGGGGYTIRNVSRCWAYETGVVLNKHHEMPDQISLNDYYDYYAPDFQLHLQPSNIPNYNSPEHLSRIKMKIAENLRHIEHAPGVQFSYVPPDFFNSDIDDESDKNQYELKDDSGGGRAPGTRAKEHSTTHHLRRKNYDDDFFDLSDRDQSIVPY
Experimental: In vitro PfHDAC1 enzymatic assay. PfHDAC inhibition assays were performed by BPS Bioscience (San Diego, CA). […] Then, each DMSO solution was directly diluted 10 × fold into the HDAC assay buffer for an intermediate dilution of 10% DMSO in HDAC assay buffer. Then, 5 µL of the intermediate dilution was added to a 50 µL reaction so that the final concentration of DMSO is 1% in all the reactions. […] Fluorescence intensity was measured at an excitation of 360 nm and an emission of 460 nm using a Tecan Infinite M1000 microplate reader. […] The fluorescent intensity data were analyzed using GraphPad Prism (v9.5.2). In the absence of the compound, the fluorescent intensity (Ft) in each data set was defined as 100% activity. In the absence of HDAC, the fluorescent intensity (Fb) in each data set was defined as 0% activity. The percent activity in the presence of each compound was calculated according to the following equation: % activity = (F-Fb)/(Ft-Fb), where “F” is the fluorescent intensity in the presence of the compound.

CYP450 2D6 = target: T2, CYP450 2D6 (Homo sapiens, UniProt P10635); assay: CYP450 inhibition in human liver microsomes, 2D6; format: in vitro ADME; settings: 10 µM
T2 construct: 10 μM compound was incubated with human liver microsomes and selective marker substrates; from tissue; host or cells: human liver microsomes
T2 sequence (P10635 whole entry): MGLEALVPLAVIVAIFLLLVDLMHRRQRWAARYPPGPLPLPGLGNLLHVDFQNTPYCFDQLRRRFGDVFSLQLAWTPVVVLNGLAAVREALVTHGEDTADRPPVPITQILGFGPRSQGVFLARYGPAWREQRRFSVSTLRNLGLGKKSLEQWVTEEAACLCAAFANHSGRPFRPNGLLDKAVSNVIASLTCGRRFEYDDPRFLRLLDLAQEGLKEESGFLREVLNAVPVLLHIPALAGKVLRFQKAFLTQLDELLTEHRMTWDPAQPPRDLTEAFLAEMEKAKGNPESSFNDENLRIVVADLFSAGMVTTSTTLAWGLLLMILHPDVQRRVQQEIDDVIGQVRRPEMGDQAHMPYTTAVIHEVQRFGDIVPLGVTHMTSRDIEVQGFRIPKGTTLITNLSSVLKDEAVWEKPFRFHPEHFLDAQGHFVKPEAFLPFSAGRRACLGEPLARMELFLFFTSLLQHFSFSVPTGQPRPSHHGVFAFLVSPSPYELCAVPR

CYP450 2C9 = target: T3, CYP450 2C9 (Homo sapiens, UniProt P11712); assay: CYP450 inhibition in human liver microsomes, 2C9; format: in vitro ADME; settings: 10 µM
T3 construct: 10 μM compound was incubated with human liver microsomes and selective marker substrates; from tissue; host or cells: human liver microsomes
T3 sequence (P11712 whole entry): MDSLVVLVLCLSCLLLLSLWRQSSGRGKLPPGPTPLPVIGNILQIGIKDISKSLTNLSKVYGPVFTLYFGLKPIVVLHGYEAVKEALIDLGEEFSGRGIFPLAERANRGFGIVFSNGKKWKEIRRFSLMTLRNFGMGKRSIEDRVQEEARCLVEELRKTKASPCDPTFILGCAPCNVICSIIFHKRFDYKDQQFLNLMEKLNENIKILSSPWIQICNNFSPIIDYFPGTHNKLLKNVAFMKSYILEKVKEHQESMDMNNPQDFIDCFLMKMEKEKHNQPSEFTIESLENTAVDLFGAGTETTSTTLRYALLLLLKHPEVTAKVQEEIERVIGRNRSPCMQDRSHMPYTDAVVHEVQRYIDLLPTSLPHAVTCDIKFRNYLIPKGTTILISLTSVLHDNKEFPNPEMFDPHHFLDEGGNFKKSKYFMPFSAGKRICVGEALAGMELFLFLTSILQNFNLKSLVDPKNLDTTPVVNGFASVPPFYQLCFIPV

CYP1A2 = target: T4, CYP1A2 (Homo sapiens, UniProt P05177); assay: CYP450 inhibition in human liver microsomes, 1A2; format: in vitro ADME; settings: 10 µM
T4 construct: 10 μM compound was incubated with human liver microsomes and selective marker substrates; from tissue; host or cells: human liver microsomes
T4 sequence (P05177 1-516): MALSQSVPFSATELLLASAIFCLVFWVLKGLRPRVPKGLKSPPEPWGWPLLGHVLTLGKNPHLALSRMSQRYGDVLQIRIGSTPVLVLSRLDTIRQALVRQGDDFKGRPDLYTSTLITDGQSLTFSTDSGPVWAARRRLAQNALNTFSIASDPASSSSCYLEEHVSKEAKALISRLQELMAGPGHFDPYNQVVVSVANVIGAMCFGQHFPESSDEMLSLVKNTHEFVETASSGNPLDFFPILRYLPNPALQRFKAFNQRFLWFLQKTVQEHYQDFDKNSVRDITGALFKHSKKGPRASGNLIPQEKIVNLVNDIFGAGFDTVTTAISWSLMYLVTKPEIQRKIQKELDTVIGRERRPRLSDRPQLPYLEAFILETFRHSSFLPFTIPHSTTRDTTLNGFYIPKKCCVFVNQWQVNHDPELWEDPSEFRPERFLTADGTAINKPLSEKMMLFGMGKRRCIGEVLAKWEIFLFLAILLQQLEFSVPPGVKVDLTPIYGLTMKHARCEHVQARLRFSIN

P. falciparum 3D7 [2] = settings: Fig. 1A; cited from earlier work

Question: For `CCN(CC)CCCC(C)Nc1ccnc2cc(Cl)ccc12` (centres unmarked) [Chloroquine, reference compound], which IC50 (P. falciparum 3D7 [1]; Plasmodium falciparum, 3D7, 96 h) is on record?
Answer: 15 nM

Question: And the IC50 (HepG2 cells; Homo sapiens, HepG2, 48 h)?
Answer: > 100 µM

Question: And the IC50 (P. falciparum Dd2; DD2, read-out: IC50 P. falciparum Dd2)?
Answer: 430 nM

Question: For `CCCCN(Cc1ccc(C(=O)NO)cc1)C(=O)Nc1ccccc1` [Nexturastat A (16), Nexturastat A, reference compound], which IC50 (P. falciparum 3D7 [1]; 96 h, values in brackets 95% confidence intervals) is on record?
Answer: 230 nM

Question: And the IC50 (P. falciparum 3D7 [1]; Plasmodium falciparum, 3D7, 96 h, 96 h, values in brackets 95% confidence intervals)?
Answer: 210 nM

Question: And the “Acetylated-H3 level (normalised to unmodified H3)” value (acetylated histone H3)?
Answer: non-statistically significant increase

Question: What about the IC50 (HepG2 cells; Homo sapiens, HepG2, 48 h, WST-1) of the same molecule?
Answer: 21.5 µM

Question: And the “Acetylated-H4 level (normalised to unmodified H4)” value (acetylated histone H4)?
Answer: non-statistically significant increase

Question: What about the inhibition at 1 µM (PfHDAC1; recombinant PfHDAC1) of the same molecule?
Answer: 58%

Question: And the inhibition at 10 µM (PfHDAC1; 10 µM, recombinant PfHDAC1)?
Answer: 92%

Question: What about the IC50 (P. falciparum Dd2; DD2, multidrug/CQ-resistant strain, read-out: IC50 P. falciparum Dd2) of the same molecule?
Answer: 290 nM

Question: With `C=C[C@H]1C[N@@]2CC[C@H]1C[C@@H]2[C@@H](O)c1ccnc2ccc(OC)cc12` [Quinidine, reference compound] as the molecule, how does the “CYP450% inhibition @ 10 µM 2D6” value (CYP450 2D6) read?
Answer: 89%

Question: And the “CYP450% inhibition @ 10 µM 2C9” value (CYP450 2C9)?
Answer: * (Inhibition < 10%)

Question: What about the “CYP450% inhibition @ 10 µM 1A2” value (CYP1A2) of the same molecule?
Answer: * (Inhibition < 10%)

Question: Which “Acetylated-H3 level (normalised to unmodified H3)” value (acetylated histone H3) does the source give for `O=C(CCCCCCC(=O)Nc1ccccc1)NO` [Vorinostat (SAHA, 1), Vorinostat, reference compound] here?
Answer: non-statistically significant increase

Question: What about the IC50 (HepG2 cells; 48 h, WST-1) of the same molecule?
Answer: 2.87 µM

Question: What about the “Acetylated-H4 level (normalised to unmodified H4)” value (acetylated histone H4) of the same molecule?
Answer: non-statistically significant increase

Question: What about the IC50 (PfHDAC1) of the same molecule?
Answer: 100 to 1000 nM

Question: What about the inhibition at 1 µM (PfHDAC1; recombinant PfHDAC1) of the same molecule?
Answer: 83%

Question: Which IC50 (P. falciparum 3D7 [2]) does the source give for `O=C(/C=C/c1cccc(S(=O)(=O)Nc2ccccc2)c1)NO` [belinostat] here?
Answer: 60 nM

Question: With `Nc1ccccc1NC(=O)c1ccc(CNC(=O)OCc2cccnc2)cc1` [entinostat] as the molecule, how does the IC50 (P. falciparum 3D7 [2]) read?
Answer: 7800 nM

Question: Which IC50 (P. falciparum 3D7 [2]) does the source give for `Cc1[nH]c2ccccc2c1CCNCc1ccc(/C=C/C(=O)NO)cc1` [panobinostat] here?
Answer: 10 nM

Question: For `Cn1cc(CNCC2CCN(c3ncc(C(=O)NO)cn3)CC2)c2ccccc21` [quisinostat], which IC50 (P. falciparum 3D7 [2]) is on record?
Answer: 5 nM
